In patent US9138434B2, “Octahydrothienoquinoline derivative, pharmaceutical composition comprising derivative, and use of these” (KISSEI PHARMACEUTICAL CO., LTD., priority 2011, dated 2015):
pEC50: −log10 of the molar value. Read-outs that look alike come from different tables or passages of the source.

Legend:
[1] = target: T1, human dopamine D2 receptor (Homo sapiens, UniProt P14416); assay: Stimulating activities on human dopamine D2 receptor, [35S]GTPγS binding to hD2R#7 cell membrane homogenates; format: biochemical
T1 construct: accorded to it of human dopamine D2 receptor (NM1-000795) registered on NCBI completely; expressed in transfected cells; membrane homogenates
Protocol: Identification Test of Stimulating Activities on Human Dopamine D2 Receptor
4) Preparation of Membrane Homogenates from hD2R#7 Cells
(2) Preparation of Membrane Homogenates from hD2R#7 Cells
The cells, which were grown to confluence in 150 mm dishes (IWAKI), were harvested with isotonic buffer (50 mM Tris (Sigma), 2 mM ethylenediamine-tetraacetic acid (Invitrogen), and 125 mM sodium chloride (Wako Pure Chemicals), pH 7.4) and centrifuged at 1880×g and 4° C. for 10 minutes, and the cell pellets were then suspended in isotonic buffer. After being subjected to one cycle of freezing and thawing, the cells were centrifuged at 1880×g and 4° C. for 10 minutes, and the cell pellets were suspended in isotonic buffer. The cells were centrifuged at 1880×g and 4° C. for 10 minutes, and the cell pellets were suspended in isotonic buffer and homogenate buffer (10 mM sodium bicarbonate (Nacalai) and 5 mM ethylenediamine-tetraacetic acid, pH 7.5). The volume ratio of isotonic-to-homogenate buffer was 2. The cells were sonicated and centrifuged at 1880×g and 4° C. for 10 minutes, and the supernatants were ultracentrifuged at 80000×g and 4° C. for 30 minutes. The final cell pellets were suspended in homogenate buffer containing protease inhibitor cocktail (Nacalai) and stored at −80° C. until use. The protein concentration was determined using BCA Protein Assay Kit (Pierce) in accordance with the manufacturer's instructions.
5) Determination of Stimulating Activities of Human Dopamine D2 Receptor
The stimulating activities of human dopamine D2 receptor was determined by measuring the binding potential of [^35S]-guanosine 5′-[gamma-thio]triphosphate ([^35S]GTPγS, PerkinElmer) according to the method described by Newman-Tancredi A. et al. (Naunyn-Schmiedeberg's Arch Pharmacol, 1999, vol. 359, pp. 447-453) with a minor modification. Test compounds and dopamine hydrochloride (Fluka) as positive control were dissolved in dimethyl sulfoxide (CARLBIOCHEM), resulting in 30 mM. The both compounds were diluted with assay buffer (50 mM Tris, 100 mM sodium chloride, 5 mM magnesium chloride (Nacalai), 1 mM ethylenediamine-tetraacetic acid, 1 mM dithiothreitol (Wako Pure Chemicals), 10 μM guanosine diphosphate (Wako Pure Chemicals) and 0.5% bovine serum albumin (Sigma), pH 7.4) to a final concentration of 100 pM (only test compounds), 1 nM, 10 nM, 100 nM, 1 μM, 10 μM and 100 μM (only dopamine hydrochloride). The above membrane homogenates and [^35S]GTPγS were diluted with assay buffer to a final concentration of 0.06 mg/mL and 0.6 nM, respectively. The serial diluted compounds (50 μL), the diluted membrane homogenates (50 μL) and the diluted [^35S]GTPγS (50 μL) were mixed on multi-screen 96-well plate (Millipore) and shaken lightly at room temperature for 60 minutes. The reaction was terminated by vacuum filtration with three times washes of ice-cold wash buffer (50 mM Tris, 100 mM sodium chloride, 5 mM magnesium chloride, and 1 mM ethylenediamine-tetraacetic acid, pH 7.4). After drying the bottoms of the plate at 60° C., MicroScinti-40 (PerkinElmer) (30 μL) was added in the plate. The tops of the plate were sealed by TopSeal-A (PerkinElmer), and the radioactivity was determined in a TopCount NXT (registered mark) (PerkinElmer) after shaking lightly for 5-10 minutes. The data was analyzed by nonlinear regression and sigmoidal dose-response curve fitting using GraphPad PRISM 4.0 (GraphPad Software), and values of EC50 (concentration of the compound producing half the maximal effect of the compound) were calculated. The data was presented as mean value (n=2).

[2] = target: T2, human serotonin 5-HT2B receptor (Homo sapiens, UniProt P41595); assay: Stimulating activities on human serotonin 5-HT2B receptor, intracellular calcium in forced expression HEK293 cells; format: cell-based
T2 construct: expressed in transfected cells; host or cells: HEK293, transient transfection (Lipofectamine 2000)
Protocol: Identification Test of Stimulating Activities on Human Serotonin 5-HT2B Receptor
The PCR was performed using forward primer depicted as sequence ID No. 4, reverse primer depicted as sequence ID No. 5 and KOD-Plus-Ver.2 (TOYOBO) as template of human brain hippocampus cDNA (Clontech). The PCR product was inserted into a plasmid (pcDNA3.1/V5-His-Topo (registered mark)). The PCR product-inserted plasmid was transformed in E. coli (One Shot TOP10 Chemically Competent). That E. coli was incubated in LB agar medium contained 50 μg/mL ampicillin for a day. A selected colony was incubated in LB medium contained 50 μg/mL ampicillin and PCR product-inserted plasmid was purified with QIAprep Spin Miniprep Kit (QIAGEN).
Mostly confluent HEK293 cells were washed with PBS, followed by exfoliation with 0.05% trypsin-EDTA and the cells were suspended in D-MEM liquid medium (phenol red-free, low glucose, pyruvic acid were contained) containing fetal bovine serum (final concentration: 10%) and GlutaMax (registered mark)I (final concentration: 2 mM). The suspension was scattered at 5×10^4 cells/100 L/well on poly-D-lysine-coated 96-well microplate (BD BioCoat (registered mark)). The scattered cells were cultured in 5% CO2 incubator at 37° C. Human serotonin 5-HT2B receptor expression plasmid was transfected in that cells according to the procedure seeing below.
Human serotonin 5-HT2B receptor expression plasmid and Lipofectamine (registered mark) 2000 (Invitrogen) were diluted to 0.008 g/L and 0.016 g/L each other with OPTI-MEM (registered mark)I Reduced-Serum Medium and incubated at room temperature. After incubation, the human serotonin 5-HT2B receptor exoression plasmid-diluted liquid and Lipofectamine (registered mark) 2000-diluted liquid were mixed at an equal volume and incubated at room temperature to form a complex. The complex was dispensed at 50 μL/well on the cells prepared above. The cells were incubated in 5% CO2 incubator at 37° C. for 2 days. After incubation, the cells were used as human serotonin 5-HT2B receptor forced expression cells for measurement of intracellular calcium concentration.
3) Determination of Stimulating Activities of Human Serotonin 5-HT2B Receptor
The stimulating activities of human serotonin 5-HT2B receptor was determined by measuring of intracellular calcium concentration. The 30 mM dimethyl sulfoxide (DMSO) solution contained test compounds or serotonin hydrochloride (Sigma) as positive control, was diluted with assay buffer ((HBSS), 20 mM HEPES, 1.3 mM calcium chloride, 0.5 mM magnesium chloride and 0.4 mM magnesium sulfate were contained, pH7.4) to appropriate concentration.
The forced expression cells were washed with assay buffer, and 100 μL/well of fluorescent calcium indicator (Fluo-4 NW Calcium Assay Kit) was added and incubated in 5% CO2 incubator at 37° C. After incubation, 50 μL/well of each test compound was added, and the concentration of intracellular calcium was measured as fluorescent signal with FlexStation (registered mark) II (Molecular Devices). The data was analyzed by nonlinear regression and sigmoidal dose-response curve fitting using GraphPad PRISM 4.0, and values of EC50 (concentration of the compound producing half the maximal effect of the compound) were calculated. The data was presented as mean value (n=2).

[3] = tested on: unilateral 6-OHDA-lesioned hemi-Parkinsonian rats; assay: Contralateral rotational behavior in unilateral 6-hydroxydopamine-lesioned hemi-parkinsonian rats; format: in vivo, rat (male Sprague-Dawley); conditions: 10 mg/kg oral, fasted rats, observed up to 24 hours, mean
Protocol: 6-OHDA was dissolved at 2 mg/mL in a physiolosical saline solution containing 0.2% L-ascorbic acid. Desipramine was dissolved at 10 mg/mL in a physiolosical saline solution in a hot-water bath. Apomorphine was dissolved at 0.1 mg/mL in a physiolosical saline solution. […] Test compounds were dissolved in a solution containing 2% DMA, 100 or 200 mol % hydrochloric acid, and 98% of a 0.5% methyl cellulose solution. […] (Eur J Pharmacol, 2000, vol. 408, P. 249-255) with a minor modification. Male Sprague-Dawley rats (6-weeks-old, Charles River Laboratories Japan Inc.) were anaesthetized with intraperitoneal somnopentyl (45 mg/kg) injection and placed in a stereotaxic frame (Narishige). In order to prevent 6-OHDA-induced damage of noradrenergic neurons, desipramine (25 mg/kg) was intraperitoneally injected 30 minutes before the 6-OHDA injection. After the bregma identification via a middle calvarial incision, the skull was drilled using a dental drill at the site of 6-OHDA injection. The lesion was made by injecting 6-OHDA (8 μg in 4 μL at a speed of 1 μL/minute) unilaterally into the left medial forebrain bundle by using a injection cannula (30 gauge needle) connected to a microsyringe (Hamilton) (the lesion coordinates; A/P −2.5 mm, L/M −1.8 mm, and V/D −8.0 mm, from the bregma point and surface of the skull). The cannula was carefully removed from the animal after keeping placed on the lesion site for 5 minutes. The skull was filled its hole with dental cement, disinfected, and the scalp incision was surgically sutured. Animals recovered from anesthesia were housed as usual until the day of the experiment. 3) Determining of Contralateral Rotational Behavior Three weeks after the lesion, rats were tested on the basis of their contralateral rotational behavior (single rotation was defined as a 360° turn) in response to 0.1 mg/kg apomorphine given subcutaneously. For behavioral observation, rats were placed in plastic cylinders of a diameter of 30 cm, and its contralateral rotational behaviors were videotaped and quantified by rat-rotation auto counting system R-RACS (Kissei Wellcom). On the experimental day, animals were fasted overnight, and test compounds were orally administrated at doses of 10 mg/kg. […] Total number of rotations and the duration of the response in experimental period were presented as mean value.

[4] = [35S]GTPγS binding, membrane homogenates of HEK293 cells stably expressing human D2 receptor, mean, n=2, read-out: EC50
[5] = intracellular calcium (Fluo-4), HEK293 cells transiently expressing human 5-HT2B receptor, mean, n=2, read-out: EC50

T1 sequence (P14416 whole entry): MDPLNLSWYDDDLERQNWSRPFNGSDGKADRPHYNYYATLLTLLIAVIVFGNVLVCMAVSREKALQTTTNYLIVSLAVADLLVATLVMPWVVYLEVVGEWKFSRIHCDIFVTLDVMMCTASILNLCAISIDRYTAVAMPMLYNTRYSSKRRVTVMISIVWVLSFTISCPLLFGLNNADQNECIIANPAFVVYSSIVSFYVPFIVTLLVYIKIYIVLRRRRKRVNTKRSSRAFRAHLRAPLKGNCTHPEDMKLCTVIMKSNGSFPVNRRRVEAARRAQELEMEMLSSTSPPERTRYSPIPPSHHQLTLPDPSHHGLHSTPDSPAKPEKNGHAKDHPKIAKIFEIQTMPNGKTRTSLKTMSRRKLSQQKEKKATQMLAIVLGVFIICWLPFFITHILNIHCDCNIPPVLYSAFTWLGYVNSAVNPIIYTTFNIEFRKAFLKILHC
T2 sequence (P41595 whole entry): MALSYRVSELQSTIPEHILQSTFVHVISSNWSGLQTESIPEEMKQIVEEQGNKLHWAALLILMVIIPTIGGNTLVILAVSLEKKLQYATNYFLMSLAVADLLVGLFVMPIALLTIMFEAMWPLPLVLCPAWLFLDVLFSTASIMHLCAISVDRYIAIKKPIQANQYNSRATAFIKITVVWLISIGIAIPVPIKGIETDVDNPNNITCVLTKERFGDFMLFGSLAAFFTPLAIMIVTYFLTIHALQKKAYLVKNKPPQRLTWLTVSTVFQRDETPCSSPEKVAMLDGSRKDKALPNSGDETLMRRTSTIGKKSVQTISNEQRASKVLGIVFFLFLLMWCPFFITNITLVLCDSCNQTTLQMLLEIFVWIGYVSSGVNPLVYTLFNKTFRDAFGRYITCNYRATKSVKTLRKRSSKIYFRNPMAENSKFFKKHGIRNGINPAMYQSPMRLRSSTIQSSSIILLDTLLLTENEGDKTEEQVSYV

pEC50 [1, 4] | pEC50 [2, 5] | SMILES | pEC50 [1] | pEC50 [2] | Total number or rotations ([3]; contralateral rotations) | Duration ([3]; duration of contralateral rotation response)
– | – | CCN(CC)CCNC(=O)N(CC)C(=O)[C@@H]1C[C@@H]2Cc3c(sc(N)c3C#N)C[C@H]2N(C)C1 [1-105, 1-{[(4aR,6R,8aR)-2-amino-3-cyano-8-methyl-4H,4aH,5H,6H,7H,8H,8aH,9H-thieno[3,2-g]quinolin-6-yl]carbonyl}-3-[2-(diethylamino)ethyl]-1-ethylurea] | 8.30 | < 5.00 | – | –
8.40 | < 5.00 | CCN(C(=O)NC(C)(C)CN(C)C)C(=O)[C@@H]1C[C@@H]2Cc3c(sc(N)c3C#N)C[C@H]2N(C)C1 [1-106, 1-{[(4aR,6R,8aR)-2-amino-3-cyano-8-methyl-4H,4aH,5H,6H,7H,8H,8aH,9H-thieno[3,2-g]quinolin-6-yl]carbonyl}-3-[1-(dimethylamino)-2-methylpropan-2-yl]-1-ethylurea] | – | – | – | –
– | < 5.00 | CCN(C(=O)NCC(CC)(CC)N(C)C)C(=O)[C@@H]1C[C@@H]2Cc3c(sc(N)c3C#N)C[C@H]2N(C)C1 [1-107, 1-{[(4aR,6R,8aR)-2-amino-3-cyano-8-methyl-4H,4aH,5H,6H,7H,8H,8aH,9H-thieno[3,2-g]quinolin-6-yl]carbonyl}-3-[2-(dimethylamino)-2-ethylbutyl]-1-ethylurea] | – | – | 4033.3 | 1068.3 min
8.52 | < 5.00 | CN(C)CCNC(=O)N(CC1CC1)C(=O)[C@@H]1C[C@@H]2Cc3c(sc(N)c3C#N)C[C@H]2N(C)C1 [1-109, 1-{[(4aR,6R,8aR)-2-amino-3-cyano-8-methyl-4H,4aH,5H,6H,7H,8H,8aH,9H-thieno[3,2-g]quinolin-6-yl]carbonyl}-1-(cyclopropylmethyl)-3-[2-(dimethylamino)ethyl]urea] | – | – | – | –
